For 46 compounds, inhibition results are on record in patent US8754073B2, “Substituted piperazino-dihydrothienopyrimidines” (Boehringer Ingelheim International GmbH, priority 2007, dated 2014).

As usually defined, the inhibition is the drop in the measured response relative to a control, in per cent.

Sequence of PDE4B (Q07343 whole entry, species assumed): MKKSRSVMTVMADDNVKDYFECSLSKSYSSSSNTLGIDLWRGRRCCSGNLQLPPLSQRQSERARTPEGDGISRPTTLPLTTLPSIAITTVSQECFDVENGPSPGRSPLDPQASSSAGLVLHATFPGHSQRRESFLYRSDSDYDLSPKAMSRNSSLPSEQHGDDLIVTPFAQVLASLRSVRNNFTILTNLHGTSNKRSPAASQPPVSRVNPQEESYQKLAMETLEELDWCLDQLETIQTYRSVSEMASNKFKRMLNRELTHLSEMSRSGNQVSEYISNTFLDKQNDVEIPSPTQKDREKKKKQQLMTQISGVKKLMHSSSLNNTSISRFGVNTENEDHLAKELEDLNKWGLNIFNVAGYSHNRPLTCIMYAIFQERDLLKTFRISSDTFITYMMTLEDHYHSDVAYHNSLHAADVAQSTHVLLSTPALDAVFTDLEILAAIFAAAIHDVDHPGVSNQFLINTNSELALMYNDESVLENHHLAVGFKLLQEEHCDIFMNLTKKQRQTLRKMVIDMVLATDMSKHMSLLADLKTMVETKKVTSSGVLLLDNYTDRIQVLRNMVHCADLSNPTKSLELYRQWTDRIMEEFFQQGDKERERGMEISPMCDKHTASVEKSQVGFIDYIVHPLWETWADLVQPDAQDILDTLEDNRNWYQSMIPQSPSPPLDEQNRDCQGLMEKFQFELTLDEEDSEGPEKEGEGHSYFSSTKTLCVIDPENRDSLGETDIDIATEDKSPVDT

The first assay addresses PDE4B (Homo sapiens, UniProt Q07343). As to the kind of experiment: Scintillation Proximity Assay (SPA) of PDE4B enzyme activity ([H3]-cAMP cleavage). To be noted: test substance 1 μM; one-hour incubation of [H3]-cAMP with PDE4B enzyme at 30° C. In kind it is biochemical. The protocol: The inhibitions (in %) at 1 μM of the individual Example substances are given in the following Table of Examples and were determined as follows:
The Scintillation Proximity Assay (SPA) (GE Healthcare, No. TRKQ7090) was carried out by using the different affinities of cyclic 3′-5′-adenosinemonophosphate (cAMP, low affinity) and linear 5′-adenosinemonophosphate (AMP, high affinity) for yttrium silicate scintillator beads. The cAMP specific phosphodiesterase (PDE) PDE4B cleaves the 3′-phosphoester bond of tritium-labelled [H3]-cAMP to form [H3]-5′-AMP. This [H3]-AMP accumulates on the scintillator beads because of its higher affinity for them and causes scintillation events (flashes of light) which are measured in a Wallac Microbeta Scintillation Counter.
The experiment starts with a one-hour incubation of [H3]-cAMP with the PDE4B enzyme in assay buffer at 30° C., in each case once with the Example substance to be tested (in a concentration of 1 μM) and once without the Example substance to be tested.
After this incubation, the reaction is stopped by the addition of the beads. The beads have an opportunity to settle in the next 45 minutes, then the measurement is carried out in the Scintillation Counter. If the substance is capable of inhibiting the enzymatic activity of the PDE4B, less [H3]-AMP is produced during the incubation phase and fewer scintillation events can be measured.
`[O-][S+]1CCc2nc(N3CCC(c4nc(-c5ccncc5)no4)CC3)nc(NC3CCOCC3)c21` (stereo not shown) [Example 132] gave an inhibition at 1 µM of 95%.

Take `[O-][S+]1CCc2nc(N3CCC(c4ccc(Br)cc4)CC3)nc(NC3CCOCC3)c21` (stereo not shown) [Example 93, {2-[4-(4-Bromophenyl)-Piperidin-1-Yl]-5-Oxo-6,7-Dihydro-5H-5λ^4-Thieno[3,2-d]Pyrimidine-4-Yl}-(Tetrahydropyran-4-Yl)-Amine]: the inhibition at 1 µM was 94%.

`N#Cc1cccc(C2CCN(c3nc4c(c(Nc5cccc(F)c5)n3)[S+]([O-])CC4)CC2)c1` (stereo not shown) [Example 138] registered an inhibition at 1 µM of 96%.

Compound `CC(C)[C@H](CO)Nc1nc(N2CCC(c3nnc4ccccn34)CC2)nc2c1[S+]([O-])CC2` (stereo partly shown) [Example 155] displayed an inhibition at 1 µM of 83%.

For `Cc1cccc(C2CCN(c3nc4c(c(NC5CCOCC5)n3)[S+]([O-])CC4)CC2)c1` (stereo not shown) [Example 7], the inhibition at 1 µM was 93%.

Compound `[O-][S+]1CCc2nc(N3CCC(c4noc5ccccc45)CC3)nc(Nc3cccc(F)c3)c21` (stereo not shown) [Example 75, [2-(4-Benzo[d]Isoxazol-3-Yl-Piperidin-1-Yl)-5-Oxo-6,7-6,7-Dihydro-5H-5λ^4-Thieno[3,2-d]Pyrimidin-4-Yl]-(3-Fluorophenyl)-Amine] yielded an inhibition at 1 µM of 97%.

`[O-][S+]1CCc2nc(N3CCC(c4noc5ccccc45)CC3)nc(NC3(CO)CC3)c21` (stereo not shown) [Example 31] gave an inhibition at 1 µM of 97%.

`Cc1noc(C2CCN(c3nc4c(c(N[C@H]5CCC(=O)N(C)C5)n3)[S+]([O-])CC4)CC2)n1` (stereo partly shown) [Example 53]: the inhibition at 1 µM was 96%.

For `[O-][S+]1CCc2nc(N3CCC(c4ccc(C(F)(F)F)cc4)CC3)nc(NC3(CO)CC3)c21` (stereo not shown) [Example 95, (1-{5-Oxo-2-[4-(4-Trifluoromethylphenyl)-Piperidin-1-Yl]-6,7-Dihydro-5H-5λ^4-Thieno[3,2-d]Pyrimidin-4-Ylamino}-Cyclopropyl)-Methanol], testing at 1 µM gave an inhibition of 93%.

For `CCc1[nH]c2ccc(F)cc2c1C1CCN(c2nc3c(c(Nc4cccc(F)c4)n2)[S+]([O-])CC3)CC1` (stereo not shown) [Example 82, {2-[4-(2-Ethyl-5-Fluoro-1H-Indol-3-Yl)-Piperidin-1-Yl]-5-Oxo-6,7-Dihydro-5H-5λ^4-Thieno[3,2-d]Pyrimidin-4-Yl}-(3-Fluorophenyl)-Amine], testing at 1 µM gave an inhibition of 92%.

For the compound `[O-][S+]1CCc2nc(N3CCC(c4noc5cc(F)ccc45)CC3)nc(Nc3cccc(F)c3)c21` (stereo not shown) [Example 136], at 1 µM the inhibition was 95%.

On to `CC(C)[C@H](CO)Nc1nc(N2CCC(c3c[nH]cn3)CC2)nc2c1[S+]([O-])CC2` (stereo partly shown) [Example 13], for which the inhibition at 1 µM is 71%.

`N#Cc1ccc(C2CCN(c3nc4c(c(NC5CCOCC5)n3)[S+]([O-])CC4)CC2)cc1` (stereo not shown) [Example 64] showed an inhibition at 1 µM of 96%.

Compound `CN1C(=O)Nc2ccccc2C12CCN(c1nc3c(c(NC4(CO)CC4)n1)[S+]([O-])CC3)CC2` (stereo not shown) [Example 28, 1-(4-(1-Hydroxymethylcyclopropylamino)-5-Oxo-6,7-Dihydro-5H-5λ^4-Thieno[3,2-d]Pyrimidin-2-Yl)-3′-Methyl-1′H-Spiro[Piperidin-4,4′-Quinazolin]-2′(3′H)-One] yielded an inhibition at 1 µM of 85%.

With `CC(C)[C@H](CO)Nc1nc(N2CCC(c3noc4ccccc34)CC2)nc2c1[S+]([O-])CC2` (stereo partly drawn) [Example 16, (R)-2-[2-(4-Benzo[d]Isoxazol-3-Yl-Piperidin-1-Yl)-5-Oxo-6,7-Dihydro-5H-5λ^4-Thieno[3,2-d]Pyrimidin-4-Ylamino]-3-Methylbutan-1-Ol], the inhibition at 1 µM was 96%.

`[O-][S+]1CCc2nc(N3CCC(c4noc5ccc(F)cc45)CC3)nc(NC3CCOCC3)c21` (stereo not shown) [Example 122] registered an inhibition at 1 µM of 96%.

`CC(C)(O)[C@H](Nc1nc(N2CCC(c3ccc(Cl)cc3)CC2)nc2c1[S+]([O-])CC2)c1ccc(F)cc1` (stereo partly drawn) [Example 4, (R)-1-{2-[4-(4-chlorophenyl)-piperidin-1-yl]-5-oxo-6,7-dihydro-5H-5λ^4-thieno[3,2-d]pyrimidin-4-ylamino}-1-(4-fluorophenyl)-2-methylpropan-2-ol] registered an inhibition at 1 µM of 91%.

With `[O-][S+]1CCc2nc(N3CCC(c4nnc(-c5ccc(F)cc5)o4)CC3)nc(NC3(CO)CC3)c21` (stereo not shown) [Example 112], at 1 µM the inhibition was 95%.

`CC(C)[C@H](CO)Nc1nc(N2CCC(c3ccc(C#N)cc3)CC2)nc2c1[S+]([O-])CC2` (stereo partly shown) [Example 20] returned an inhibition at 1 µM of 94%.

For the compound `[O-][S+]1CCc2nc(N3CCC(c4cccc(O)c4)CC3)nc(Nc3cccc(F)c3)c21` (stereo not shown) [Example 76], 1 µM produced 97% inhibition.

Take `N#Cc1cccc(C2CCN(c3nc4c(c(NC5(CO)CC5)n3)[S+]([O-])CC4)CC2)c1` (stereo not shown) [Example 107]: testing at 1 µM gave an inhibition of 94%.

`[O-][S+]1CCc2nc(N3CCC(c4ccc(F)cc4)CC3)nc(NC3CCOCC3)c21` (stereo not shown) [Example 10] yielded an inhibition at 1 µM of 93%.

As to `CC(C)[C@H](CO)Nc1nc(N2CCC(c3noc4ccc(F)cc34)CC2)nc2c1[S+]([O-])CC2` (stereo partly shown) [Example 153], the inhibition at 1 µM amounted to 95%.

Compound `CC(C)c1noc(C2CCN(c3nc4c(c(NC5(CO)CC5)n3)[S+]([O-])CC4)CC2)n1` (stereo not shown) [Example 113] gave an inhibition at 1 µM of 92%.

The assay is the same for the next values; noted with them: test substance 1 μM; one-hour incubation with [H3]-cAMP at 30° C.
Regarding `CC(C)[C@H](CO)Nc1nc(N2CCC(C(=O)c3ccc(F)cc3)(c3ccc(F)cc3)CC2)nc2c1[S+]([O-])CC2` (stereo partly shown) [Example 298], the inhibition at 1 µM came to 91%.

As to `[O-][S+]1CCc2nc(N3CCC(Oc4ccc(Cl)cc4)CC3)nc(NC3CCOCC3)c21` (stereo not shown) [Example 271], 1 µM produced 92% inhibition.

For the compound `CN1C[C@@H](Nc2nc(N3CCC(Oc4ccc(C5=NCCO5)cc4)CC3)nc3c2[S+]([O-])CC3)CCC1=O` (stereo partly shown) [Example 199], the inhibition at 1 µM was found to be 96%.

`CN(C(=O)c1cccc(C2CCN(c3nc4c(c(NC5CCOCC5)n3)[S+]([O-])CC4)CC2)c1)C1CCOCC1` (stereo not shown) [Example 256]: the inhibition at 1 µM is 91%.

On to `Cc1nn(C)cc1C(C)NC(=O)c1ccc(C2CCN(c3nc4c(c(NC5CCOCC5)n3)[S+]([O-])CC4)CC2)cc1` (stereo not shown) [Example 218], for which the inhibition at 1 µM was determined as 94%.

On to `[O-][S+]1CCc2nc(N3CCC(Oc4ccncc4)CC3)nc(NC3CCOCC3)c21` (stereo not shown) [Example 268], for which the inhibition at 1 µM was 80%.

Regarding `COCC1(c2ccc(Cl)cc2)CCN(c2nc3c(c(N[C@@H](CO)C(C)C)n2)[S+]([O-])CC3)CC1` (stereo partly shown) [Example 304], testing at 1 µM gave an inhibition of 89%.

In the case of `[O-][S+]1CCc2nc(N3CCC(c4nc(-c5ccccc5)no4)CC3)nc(NC3CCOCC3)c21` (stereo not shown) [Example 312], testing at 1 µM gave an inhibition of 92%.

For the compound `CC(C)(NC(=O)c1ccc(C2CCN(c3nc4c(c(NC5CCOCC5)n3)[S+]([O-])CC4)CC2)cc1)c1ccncc1` (stereo not shown) [Example 223], testing at 1 µM gave an inhibition of 80%.

As to `CN1C[C@@H](Nc2nc(N3CCC(CO)(c4ccc(Cl)cc4)CC3)nc3c2[S+]([O-])CC3)CCC1=O` (stereo partly shown) [Example 246, 5-{2-[4-(4-Chlorophenyl)-4-Hydroxymethylpiperidin-1-Yl]-5-Oxo-6,7-Dihydro-5H-5λ^4-Thieno[3,2-d]Pyrimidin-4-Ylamino}-1-Methyl Piperidin-2-One], 1 µM produced 93% inhibition.

Turning to `[O-][S+]1CCc2nc(N3CCC(Oc4ccc5c(c4)OCO5)CC3)nc(NC3CCOCC3)c21` (stereo not shown) [Example 174], the inhibition at 1 µM stood at 92%.

Turning to `COCC1(c2ccc(Cl)cc2)CCN(c2nc3c(c(NC4(CO)CC4)n2)[S+]([O-])CC3)CC1` (stereo not shown) [Example 303], 1 µM produced 89% inhibition.

In turn, `Cc1nn(C)cc1C(C)NC(=O)c1ccc(OC2CCN(c3nc4c(c(NC5CCOCC5)n3)[S+]([O-])CC4)CC2)cc1` (stereo not shown) [Example 244] showed an inhibition at 1 µM of 95%.

In turn, `COC1(c2ccc(Cl)cc2)CCN(c2nc3c(c(NC4(CO)CC4)n2)[S+]([O-])CC3)CC1` (stereo not shown) [Example 314] had an inhibition at 1 µM of 88%.

As for `[O-][S+]1CCc2nc(N3CCC(c4nc5ccc(Cl)cc5[nH]4)CC3)nc(NC3CCOCC3)c21` (stereo not shown) [Example 191], testing at 1 µM gave an inhibition of 96%.

For the compound `[O-][S+]1CCc2nc(N3CCC(c4nc5cc(F)ccc5[nH]4)CC3)nc(NC3CCOCC3)c21` (stereo not shown) [Example 209], 1 µM produced 95% inhibition.

In turn, `N#Cc1ccc(OC2CCN(c3nc4c(c(NC5CCOCC5)n3)[S+]([O-])CC4)CC2)cc1` (stereo not shown) [Example 321] had an inhibition at 1 µM of 93%.

Take `Cc1cn(C)nc1CN(C)C(=O)c1cccc(C2CCN(c3nc4c(c(NC5CCOCC5)n3)[S+]([O-])CC4)CC2)c1` (stereo not shown) [Example 258]: testing at 1 µM gave an inhibition of 93%.

As to `COCC1(c2ccc(Cl)cc2)CCN(c2nc3c(c(NC4CCOCC4)n2)[S+]([O-])CC3)CC1` (stereo not shown) [Example 302], the inhibition at 1 µM was 91%.

On to `CC(C)[C@H](CO)Nc1nc(N2CCC(CN(C)S(C)(=O)=O)(c3ccccc3)CC2)nc2c1[S+]([O-])CC2` (stereo partly shown) [Example 331], for which the inhibition at 1 µM stood at 85%.

`CN1C[C@@H](Nc2nc(N3CCC(Oc4ccncc4)CC3)nc3c2[S+]([O-])CC3)CCC1=O` (stereo partly shown) [Example 264] yielded an inhibition at 1 µM of 94%.

In turn, `[O-][S+]1CCc2nc(N3CCC(CO)(c4ccc(Cl)cc4)CC3)nc(Nc3cccc(F)c3)c21` (stereo not shown) [Example 291] had an inhibition at 1 µM of 89%.
